In general, IC50 refers to the concentration that gives 50% inhibition. One may read the Ki as the dissociation constant of the complex between target and ligand, obtained from inhibition or displacement. Low readings indicate tighter binding, high ones weaker binding.

One series has as its system HIV-1. In words: Anti-viral activity: syncytium formation (Sup T1) or reverse transcriptase assay (H9). It is filed as cell-based. As to conditions: Human immunodeficiency virus 1, SUP-T1. Here is the method:
The anti-viral activity of the compounds of the present invention was determined by measuring the concentration of the compounds that inhibits the proliferation of HIV by 50%(IC50) through a survey for syncytium formation or reverse transcriptase assay.
1×10^5 cells of each of H9(ATCC HTB 176) and Sup T1 cell lines were added to the wells of a 24-well microtiter plate and various concentrations so the compounds of the present invention were added thereto. 200 TCID50 (200-fold of 50% tissue culture infection dose) of HIV-1 inoculum and rpmi-1640 medium(Sigma Chemical Co., U.S.A) were added successively to the wells and the plate was incubated at 37° C. In case of Sup T1, the number of syncytium formed was investigated after 3 to 9 days. IC50 of each compound was determined by measuring the concentration of inhibitor that can reduce the number of syncytium by 50% compared with those formed in the same condition without the inhibitor.
In case of H9, three-quarters(3/4) of the culture medium in volume was refreshed every 3 days; and 6 ml of the culture fluid was centrifuged at 1000 rpm for 10 minutes. To 5 ml of the resulting supernatant were added 2.5 ml of 30% polyethyleneglycol(PEG, M.W. 6000-8000) and 0.4M NaCl. The resulting solution was allowed to stand at 0° C. overnight to precipitate virus particles. The solution was centrifuged at 2000 rpm for 45 minutes, the supernatant was discarded therefrom and the precipitate was diluted with 20 μl of a reverse transcriptase suspension buffer(50 mM tris-HCl, pH 7.5, 1 mM dithiothreitol, 20% glycerol, 0.25M KCl and 0.25% Triton X-100). The resulting suspension was stored in an Effendorf tube at -70° C. until used. A procedure of freezing said virus suspension for 2 minutes in dry ice and thawing same at 37° C. for 2 minutes was repeated three times and the resulting suspension was centrifuged at 4° C. The resulting supernatant was used in carrying out the reverse transcriptase assay.
10 μl of the said viral suspension was added to a solution of: 10 μl of buffer solution(250 mM tris-HCl, pH 7.5, 37.5 mM MgCl2, 0.25% triton X-100), 1.2 μl of 200 mM dithiothreitol, 5 μl of 10 μM oligo(dT)-poly(A)(Boeringer Manheim, 12-18 oligomer), 1 μl(1 μCi) of ^3 H-TTP(Thymidinetri-phosphate) and 23.6 μl of water; and the resulting mixture was placed at 37° C. After 1 hour, the mixture was poured onto a WHATMAN DEB1 filter and the filter was washed three times with 5 ml of 2×SSC buffer solution(17.53 g of sodium chloride, 8.82 g of sodium citrate, pH 7.0, 1 liter of water) for about 10 minutes each time and twice with 95% ethanol for 10 seconds. The filter was put onto aluminium foil and dried with an infra-red lamp. The amount of radioactivity was counted using a liquid scintillation counter. IC50 of each compound was determined by measuring the concentration of inhibitor that can reduce the activity of reverse transcriptase by 50%.

The nature of series [1]: Cytotoxicity in H9 or Sup T1 cells (trypan blue dye exclusion). It is filed as cell-based. To be noted: human. As for the experimental part:
To determine the cytotoxicity of the compounds of the present invention, 0.1 μM to 100 μM of the novel compounds were added to H9 cell or Sup T1 cell and the mixture was cultured on a rpmi-1640 medium at 37° C. The medium was refreshed every 3 days and the extent of cell proliferation was observed using Hemacytometer according to the trypan blue dye exclusion technique which is well known in the art. CT50 (i.e., concentration that causes death of cells by 50%) was determined. For reference, AZT(Burrows-Wellcome), A-75925 (Abbott, C2 symmetric compound) and Ro-31-8959(F. Hofmann-La Roche) were used as control compounds.

The next series addresses T1, HIV-1 protease (Human immunodeficiency virus type 1 group M subtype B, UniProt P04585).
T1 construct: 2.6 nM of HIV-1 protease
Briefly: Assay for inhibitory effect on HIV protease (residual enzyme activity, HPLC of substrate cleavage). It is filed as biochemical. In short, it runs like this:
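HIV-1 protease (2.6 nM) incubated with inhibitor in 50 mM sodium acetate pH 5.5, 1 mM DTT, 1 mM EDTA, 0.75 M ammonium sulfate, 0.2 M NaCl, 0.1% NP40. Residual activity was sampled over time using 100 μM p-NO2-Phe undecapeptide substrate (KM 20 μM), HPLC, 280 nm. kobs came from ln(activity)-versus-time slope, and KI and kina from kinetic fitting.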

Where [2] appears, read: concentration that causes death of cells by 50%, H9 or Sup T1 cells, 37° C, read-out: CT50 (the source's name).
Setting [3] is: HIV-1 protease 2.6 nM, pH 5.5, inhibition constant.
Where [4] appears, read: HIV-1 protease 2.6 nM, pH 5.5, rate constant of covalent bond formation, read-out: kina (converted).
[5] abbreviates: second order rate constant, HIV-1 protease, pH 5.5, read-out: kina /KI (converted).

Structures are written as SMILES. Where two headings read alike, the source gives them in different places. Where only a bound is given, the exact number is not on record here.

In the series on HIV-1, `CC(C)[C@H](NC(=O)C[C@@H]1O[C@@H]1[C@H](Cc1ccccc1)NC(=O)[C@H](CC(N)=O)NC(=O)c1ccc2ccccc2n1)c1ccccc1` [compound 47] returned an IC50 of 70 nM. In addition, the CC50 in series [1] (setting [2]) was above 100000 nM. Affinity at HIV-1 protease (setting [3]) was put at a Ki of 12 nM. The kinact at HIV-1 protease (setting [4]) is 0.0383 s⁻¹. Moreover, the kinact/KI on HIV-1 protease (setting [5]) is 3.17e+06 M⁻¹ s⁻¹.
The corresponding values for `CC(C)C(Cc1ccccc1)NC(=O)C[C@@H]1O[C@@H]1[C@H](Cc1ccccc1)NC(=O)[C@H](CC(N)=O)NC(=O)c1ccc2ccccc2n1` (stereo partly drawn) [compound 48] are 500 nM, around 5000 nM, 600 nM, 0.035 s⁻¹ and 58300 M⁻¹ s⁻¹.
In the case of `CC(C)[C@@H](CCc1ccccc1)NC(=O)C[C@@H]1O[C@@H]1[C@H](Cc1ccccc1)NC(=O)[C@H](CC(N)=O)NC(=O)c1ccc2ccccc2n1` [compound 49], the IC50 with HIV-1 is above 5000 nM. For the same molecule, in series [1] (setting [2]), the CC50 was above 100000 nM. Besides, affinity on HIV-1 protease (setting [3]) was put at a Ki of 800 nM. The kinact at HIV-1 protease (setting [4]) was 0.03 s⁻¹. Moreover, the kinact/KI at HIV-1 protease (setting [5]) was 38300 M⁻¹ s⁻¹.
Taken in the same sequence, the figures for `CC(C)[C@@H](CCCc1ccccc1)NC(=O)C[C@@H]1O[C@@H]1[C@H](Cc1ccccc1)NC(=O)[C@H](CC(N)=O)NC(=O)c1ccc2ccccc2n1` [compound 50] were above 5000 nM, above 100000 nM, 950 nM, 0.025 s⁻¹ and 26700 M⁻¹ s⁻¹.
The corresponding values for `NC(=O)C[C@H](NC(=O)OCc1ccccc1)C(=O)N[C@@H](Cc1ccccc1)[C@H]1O[C@H]1CCc1ccccc1` [compound 52, 2-L-(N-benzyloxycarbonyl-L-asparaginyl)amino-(3R,4S)-epoxy-1,6-diphenylhexane] are 700 to 1200 nM, above 100000 nM, 100 nM, 0.0005 s⁻¹ and 5000 M⁻¹ s⁻¹.
The corresponding values for `CC(C)[C@H](NC(=O)OCc1ccccc1)C(=O)N[C@@H](Cc1ccccc1)[C@H]1O[C@H]1CCc1ccccc1` [compound 53, 2-L-(N-benzyloxycarbonyl-L-valinyl)amino-(3R,4S)-epoxy-1,6-diphenylhexane] are 1000 to 1500 nM, above 100000 nM, 91 nM, 0.0015 s⁻¹ and 16500 M⁻¹ s⁻¹.
For the molecule `NC(=O)C[C@H](NC(=O)COc1cccc2ccccc12)C(=O)N[C@@H](Cc1ccccc1)[C@H]1O[C@H]1CCc1ccccc1` [compound 61, 2-L-(N-1-naphthoxyacetyl-L-asparaginyl)amino-(3R,4S)-epoxy-1,6-diphenylhexane], the IC50 in the series with HIV-1 was 1000 to 2000 nM. For the same molecule, the CC50 in series [1] (setting [2]) was above 100000 nM. The molecule also returned a Ki on HIV-1 protease (setting [3]) of 250 nM. The kinact on HIV-1 protease (setting [4]) was 0.0005 s⁻¹. Moreover, on HIV-1 protease (setting [5]), the kinact/KI is 2000 M⁻¹ s⁻¹.
The corresponding values for `NC(=O)C[C@H](NC(=O)c1ccc2ccccc2n1)C(=O)N[C@@H](Cc1ccccc1)[C@H]1O[C@H]1CCc1ccccc1` [compound 62, 2-L-(N-2-quinolinecarbonyl-L-asparaginyl)amino-(3R,4S)-epoxy-1,6-diphenylhexane] are 200 to 700 nM, above 100000 nM, 130 nM, 0.00183 s⁻¹ and 14200 M⁻¹ s⁻¹.
`NC(=O)C[C@H](NC(=O)c1cnc2ccccc2n1)C(=O)N[C@@H](Cc1ccccc1)[C@H]1O[C@H]1CCc1ccccc1` [compound 63, 2-L-(N-quinoxaline-2-ylcarbonyl-L-asparaginyl)amino-(3R,4S)-epoxy-1,6-diphenylhexane] had an IC50 in the series on HIV-1 of 1000 to 2000 nM. Further, in series [1] (setting [2]), the CC50 is above 100000 nM. For the same molecule, the Ki on HIV-1 protease (setting [3]) came out at 250 nM. Besides, the kinact on HIV-1 protease (setting [4]) was 0.00483 s⁻¹. On HIV-1 protease (setting [5]), the kinact/KI was 20000 M⁻¹ s⁻¹.
The corresponding values for `CC(C)CC[C@@H]1O[C@@H]1[C@H](Cc1ccccc1)NC(=O)[C@H](CC(N)=O)NC(=O)c1ccc2ccccc2n1` [compound 70, 2-L-[N-(2-quinolinecarbonyl)-L-asparaginyl]amino-(3R,4S)-epoxy-7-methyl-1-phenyloctane] are 5000 nM, above 100000 nM, 310 nM, 0.002 s⁻¹ and 6500 M⁻¹ s⁻¹.
For `CC(C)[C@H](NC(=O)OCc1ccccc1)C(=O)NC[C@@H]1O[C@@H]1[C@H](Cc1ccccc1)NC(=O)[C@@H](NC(=O)OCc1ccccc1)C(C)C` [compound 71, 4S-1,4-bis[N-(N'-benzyloxycarbonyl-L-valinyl)amino]-5-phenyl-(2S,3R)-(Z)-epoxypentane], the half-inhibitory concentration (IC50) in the series on HIV-1 worked out at 80 nM. Moreover, the CC50 in series [1] (setting [2]) is above 100000 nM. The inhibition constant (Ki) at HIV-1 protease stood at 0.18 nM. Also, the kinact on HIV-1 protease (pH 5.5, read-out: kina) was 0.00233 s⁻¹. For the same molecule, the kinact/KI on HIV-1 protease (pH 5.5, read-out: kina /KI) was 1.28e+06 M⁻¹ s⁻¹.
In the series with HIV-1, `NC(=O)C[C@H](NC(=O)OCc1ccccc1)C(=O)NC[C@@H]1O[C@@H]1[C@H](Cc1ccccc1)NC(=O)[C@H](CC(N)=O)NC(=O)OCc1ccccc1` [compound 72] registered a 50% inhibitory concentration (IC50) of 500 nM. In series [1] (h9 or sup t1 cells), this molecule showed a CC50 above 100000 nM. At HIV-1 protease (setting [3]), this molecule gave a Ki of 110 nM. For the same molecule, the kinact at HIV-1 protease (setting [4]) is 0.00367 s⁻¹. Also, the kinact/KI on HIV-1 protease (setting [5]) was 33300 M⁻¹ s⁻¹.
For `C[C@@H](O)[C@H](NC(=O)OCc1ccccc1)C(=O)NC[C@@H]1O[C@@H]1[C@H](Cc1ccccc1)NC(=O)[C@@H](NC(=O)OCc1ccccc1)[C@@H](C)O` [compound 73], in the series on HIV-1, the IC50 amounted to 5000 nM. The CC50 in series [1] (setting [2]) is above 100000 nM. On HIV-1 protease (setting [3]), this molecule came in with a Ki above 10000 nM.
Taken in the same sequence, the figures for `CC(C)[C@H](NC(=O)OCc1ccccc1)C(=O)NC[C@@H]1O[C@@H]1[C@H](Cc1ccccc1)NC(=O)[C@H](CC(N)=O)NC(=O)OCc1ccccc1` [compound 75] were 1000 nM, above 10000 nM and above 10000 nM.
The molecule `CC(C)[C@H](NC(=O)OCc1ccccc1)C(=O)N[C@@H](Cc1ccccc1)[C@H]1O[C@H]1CNC(=O)[C@H](CC(N)=O)NC(=O)OCc1ccccc1` [compound 76, 4S-[N^1-[(N-benzyloxycarbonyl-L-asparaginyl)amino]]-[N^4-[(N-benzyloxycarbonyl-L-valinyl)amino]]-5-phenyl-(2S,3R)-(Z)-epoxypentane] came in with an IC50 in the series on HIV-1 of 1000 nM. In addition, the CC50 in series [1] (setting [2]) was above 100000 nM. The molecule also came in with a Ki on HIV-1 protease (setting [3]) of 2000 nM. Also, on HIV-1 protease (setting [4]), the kinact is 0.000767 s⁻¹. The kinact/KI on HIV-1 protease (setting [5]) is 383 M⁻¹ s⁻¹.
Taken in the same sequence, the figures for `CC(C)[C@H](NC(=O)OCc1ccccn1)C(=O)NC[C@@H]1O[C@@H]1[C@H](Cc1ccccc1)NC(=O)[C@@H](NC(=O)OCc1ccccn1)C(C)C` [compound 77] were 1000 nM, above 100000 nM, 100 nM, 0.004 s⁻¹ and 40000 M⁻¹ s⁻¹.
Regarding `CC(C)[C@H](NC(=O)N(C)Cc1ccccn1)C(=O)NC[C@@H]1O[C@@H]1[C@H](Cc1ccccc1)NC(=O)[C@@H](NC(=O)N(C)Cc1ccccn1)C(C)C` [compound 80], the half-maximal inhibitory concentration (IC50) in the series with HIV-1 was found to be 500 nM. Besides, in series [1] (setting [2]), the CC50 is above 100000 nM. On HIV-1 protease (setting [3]), this molecule displayed a Ki of 150 nM. Further, the kinact at HIV-1 protease (setting [4]) is 0.00533 s⁻¹. For the same molecule, the kinact/KI on HIV-1 protease (setting [5]) is 35000 M⁻¹ s⁻¹.

For the origin of these results see US5744621A, “Irreversible HIV protease inhibitors, intermediates, compositions and processes for the preparation thereof” (Lucky Limited., priority 1992, dated 1998).
